Data from ChEMBL document CHEMBL1201862, “PubChem BioAssay data set” (2004).
The source made the active and inactive calls.

Tests used:
[1] = biological target: T1, Methionyl-tRNA synthetase, putative (Trypanosoma brucei brucei, UniProt Q38C91); assay type: functional, Trypanosoma brucei brucei strain 927/4 GUTat10.1
T1 sequence (Q38C91 whole entry): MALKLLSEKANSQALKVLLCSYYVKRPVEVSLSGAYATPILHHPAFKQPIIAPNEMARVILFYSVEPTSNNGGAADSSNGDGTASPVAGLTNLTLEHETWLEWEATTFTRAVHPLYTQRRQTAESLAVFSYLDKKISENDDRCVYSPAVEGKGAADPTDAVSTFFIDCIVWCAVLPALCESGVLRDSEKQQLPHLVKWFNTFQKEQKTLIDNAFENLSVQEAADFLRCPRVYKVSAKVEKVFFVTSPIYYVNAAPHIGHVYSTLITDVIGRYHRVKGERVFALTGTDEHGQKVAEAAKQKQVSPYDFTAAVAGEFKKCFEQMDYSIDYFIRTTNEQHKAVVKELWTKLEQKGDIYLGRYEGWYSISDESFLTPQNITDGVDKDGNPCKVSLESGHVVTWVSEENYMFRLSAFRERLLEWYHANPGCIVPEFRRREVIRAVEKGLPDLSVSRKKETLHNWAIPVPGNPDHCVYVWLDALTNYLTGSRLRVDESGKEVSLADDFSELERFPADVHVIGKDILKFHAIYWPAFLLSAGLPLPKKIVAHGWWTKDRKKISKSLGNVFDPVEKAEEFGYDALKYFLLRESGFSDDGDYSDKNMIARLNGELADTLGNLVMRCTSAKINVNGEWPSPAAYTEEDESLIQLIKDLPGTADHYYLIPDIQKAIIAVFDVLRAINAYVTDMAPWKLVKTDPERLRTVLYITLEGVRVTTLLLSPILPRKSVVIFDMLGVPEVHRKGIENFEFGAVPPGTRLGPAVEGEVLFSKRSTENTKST

[2] = biological target: T1, Methionyl-tRNA synthetase, putative; assay type: functional, Trypanosoma brucei brucei strain 927/4 GUTat10.1; remark: listed apart in the source
[3] = Counterscreen for inhibitors of Trypanosoma brucei methionyl tRNA synthetase (MetRS): Luminescence-based cell-based high throughput dose response assay to identify compounds that are cytotoxic to Jurkat human T lymphocyte cells.; assay type: functional
[4] = biological target: T2, Nuclear receptor subfamily 0 group B member 1 (Homo sapiens, UniProt P51843); assay type: functional, cell-based;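 also: HEK293T cells transfected with SF-1 and DAX-1 plus StAR promoter luciferase reporter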
T2 sequence (P51843 whole entry): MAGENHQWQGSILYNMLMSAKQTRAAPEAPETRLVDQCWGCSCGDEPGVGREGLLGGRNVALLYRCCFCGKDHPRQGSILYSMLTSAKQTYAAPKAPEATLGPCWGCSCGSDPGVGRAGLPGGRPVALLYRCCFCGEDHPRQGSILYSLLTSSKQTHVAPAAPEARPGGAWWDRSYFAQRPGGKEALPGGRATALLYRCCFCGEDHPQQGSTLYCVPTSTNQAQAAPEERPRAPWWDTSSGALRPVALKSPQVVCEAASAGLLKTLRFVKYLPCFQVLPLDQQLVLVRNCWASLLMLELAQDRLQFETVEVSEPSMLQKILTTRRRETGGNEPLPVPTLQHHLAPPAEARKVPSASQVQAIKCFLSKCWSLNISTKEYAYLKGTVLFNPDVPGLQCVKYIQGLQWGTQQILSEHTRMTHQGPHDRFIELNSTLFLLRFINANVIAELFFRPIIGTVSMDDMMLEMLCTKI

cells = assay type: functional, cell-based
[5] = biological target: Hepatocyte nuclear factor 4-alpha (Homo sapiens, UniProt P41235); assay type: functional, cell-based;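 also: biochemical luminescence-based dose-response counterscreen measuring inhibition of HNF4 dimerization, run alongside a screen for blockers of ABHD5–perilipin-5 interaction; split luciferase complementation of HNF4 fusion proteins in cell lysate measuring dimerization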
Sequence of Hepatocyte nuclear factor 4-alpha (P41235 whole entry, the tested form may be a part): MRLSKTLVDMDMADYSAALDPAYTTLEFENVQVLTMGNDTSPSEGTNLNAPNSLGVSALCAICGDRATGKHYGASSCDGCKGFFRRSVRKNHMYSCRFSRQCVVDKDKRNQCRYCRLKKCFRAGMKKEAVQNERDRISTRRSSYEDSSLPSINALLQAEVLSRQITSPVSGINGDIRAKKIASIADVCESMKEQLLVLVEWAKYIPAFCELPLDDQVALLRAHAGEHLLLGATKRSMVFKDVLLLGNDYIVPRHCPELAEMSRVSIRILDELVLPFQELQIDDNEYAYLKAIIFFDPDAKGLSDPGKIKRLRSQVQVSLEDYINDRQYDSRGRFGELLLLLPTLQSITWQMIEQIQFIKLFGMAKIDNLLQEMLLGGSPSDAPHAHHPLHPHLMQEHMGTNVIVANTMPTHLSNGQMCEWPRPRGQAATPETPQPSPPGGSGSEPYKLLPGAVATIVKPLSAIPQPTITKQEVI

[6] = biological target: T3, Mannose-6-phosphate isomerase (Homo sapiens, UniProt P34949); experiment: human PMI inhibitors, high substrate, primary screen, biochemical, fluorescence intensity, high mannose 6-phosphate (AID 1220)
T3 sequence (P34949 whole entry): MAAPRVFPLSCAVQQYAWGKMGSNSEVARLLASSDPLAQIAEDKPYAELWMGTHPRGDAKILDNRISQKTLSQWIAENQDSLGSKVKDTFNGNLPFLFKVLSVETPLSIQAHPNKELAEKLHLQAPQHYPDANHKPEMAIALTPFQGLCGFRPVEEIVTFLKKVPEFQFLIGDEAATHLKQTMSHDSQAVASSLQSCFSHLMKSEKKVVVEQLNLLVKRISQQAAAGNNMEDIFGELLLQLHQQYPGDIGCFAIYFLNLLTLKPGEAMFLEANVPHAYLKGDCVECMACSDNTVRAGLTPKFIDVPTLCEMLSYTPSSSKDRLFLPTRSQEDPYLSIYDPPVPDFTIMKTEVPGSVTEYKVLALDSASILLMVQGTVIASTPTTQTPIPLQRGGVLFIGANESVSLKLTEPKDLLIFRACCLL

[7] = biological target: Glucose-6-phosphate 1-dehydrogenase (Homo sapiens, UniProt P11413); experiment: human G6PD enzyme inhibitors, dose response, selectivity assay for P. falciparum G6PD inhibitor project, biochemical, fluorescence (AID 504792); assay type: functional
Sequence of Glucose-6-phosphate 1-dehydrogenase (P11413 whole entry): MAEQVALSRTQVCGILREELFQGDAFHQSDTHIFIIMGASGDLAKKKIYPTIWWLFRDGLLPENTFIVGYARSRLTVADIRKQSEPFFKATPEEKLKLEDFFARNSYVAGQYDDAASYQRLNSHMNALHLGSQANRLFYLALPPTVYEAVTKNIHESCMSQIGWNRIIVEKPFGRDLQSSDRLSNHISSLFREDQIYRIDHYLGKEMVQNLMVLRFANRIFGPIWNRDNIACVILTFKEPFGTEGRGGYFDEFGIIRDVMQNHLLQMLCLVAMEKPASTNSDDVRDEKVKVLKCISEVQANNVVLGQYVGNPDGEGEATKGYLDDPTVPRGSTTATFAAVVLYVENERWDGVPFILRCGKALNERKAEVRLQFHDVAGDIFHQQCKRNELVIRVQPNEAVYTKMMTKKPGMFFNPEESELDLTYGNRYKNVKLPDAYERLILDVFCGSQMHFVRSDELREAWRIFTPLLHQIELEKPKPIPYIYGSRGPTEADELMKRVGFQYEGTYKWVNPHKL

[8] = HeLa cell cytotoxicity, dose response, cytotoxicity control for MgcRacGAP inhibitor project (AID 624300); assay type: functional
[9] = biological target: T4, Rac GTPase-activating protein 1 (Homo sapiens, UniProt Q9H0H5); experiment: MgcRacGAP GTPase-activating activity inhibitors, confirmation, biochemical, ADP Hunter fluorescence, primary and confirmatory (AID 624330); assay type: functional
T4 sequence (Q9H0H5 whole entry): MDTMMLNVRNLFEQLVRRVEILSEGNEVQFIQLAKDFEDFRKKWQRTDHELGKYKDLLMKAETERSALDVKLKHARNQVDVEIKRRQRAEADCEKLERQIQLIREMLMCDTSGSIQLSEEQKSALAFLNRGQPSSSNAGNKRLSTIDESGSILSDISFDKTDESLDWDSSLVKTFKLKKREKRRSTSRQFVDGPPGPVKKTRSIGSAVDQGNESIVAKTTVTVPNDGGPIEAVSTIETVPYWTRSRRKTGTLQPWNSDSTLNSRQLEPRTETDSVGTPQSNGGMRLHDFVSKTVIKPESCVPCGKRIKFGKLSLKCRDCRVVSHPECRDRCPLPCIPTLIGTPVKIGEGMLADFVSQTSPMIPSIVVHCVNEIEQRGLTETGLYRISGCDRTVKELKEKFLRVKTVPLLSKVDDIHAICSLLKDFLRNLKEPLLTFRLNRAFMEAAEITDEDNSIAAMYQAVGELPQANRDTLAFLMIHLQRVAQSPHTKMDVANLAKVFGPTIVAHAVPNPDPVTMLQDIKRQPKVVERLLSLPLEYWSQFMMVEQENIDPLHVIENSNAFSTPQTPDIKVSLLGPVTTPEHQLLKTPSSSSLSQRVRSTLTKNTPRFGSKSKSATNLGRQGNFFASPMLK

Interleukin-8 [10] = biological target: T5, Interleukin-8 (Homo sapiens, UniProt P10145); experiment: Dose Response confirmation of uHTS small molecule hits for cystic fibrosis induced NFkb Inhibitors in a TNFa-induced IL8 counterscreen.; assay type: functional; conditions: read-out: IC50_Mean
T5 sequence (P10145 whole entry): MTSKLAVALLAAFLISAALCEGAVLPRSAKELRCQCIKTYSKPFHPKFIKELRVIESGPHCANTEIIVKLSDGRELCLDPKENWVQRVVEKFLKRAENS

HEK293 = experiment: inhibitors of LMP1-driven NF-kB reporter, dose response, cell-based, HEK293, luciferase, cherry-pick (AID 588343); assay type: functional; conditions: Homo sapiens
Interleukin-8 [11] = biological target: T5, Interleukin-8; experiment: Dose Response confirmation of uHTS small molecule hits for cystic fibrosis induced NFkb Inhibitors in a PAF-induced IL8 counterscreen.; assay type: functional; conditions: read-out: IC50_Mean
[12] = miR-122 activators in hepatoma reporter cells, dose response, cell-based, Huh7 psiCHECK-miR122, Renilla luciferase, cherry-picked (AID 651956); assay type: functional;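 also: huh7 hepatoma cells stably carrying a psiCHECK-2 miR-122 sensor plasmid; renilla luciferase signal reporting endogenous miR-122 activity after 48 h compound exposure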

Which IC50 [1] does the source give for `CCC[C@H]1CN(Cc2cccnc2)C(=O)[C@@H]1CC(=O)Nc1ccc(Br)cc1` here?
Its IC50 is 8.41 µM (active).

And the IC50 [2]?
The IC50 was 3.49 µM (active).

And the IC50 [3]?
The IC50 was 83.3 µM (inactive).

Which results are given for `Clc1ccc(-c2nc3ccc(Br)cn3c2Cc2ccsc2)cc1`?
IC50 [4]: > 67.5 µM (inactive); IC50 (cells): > 67.5 µM (inactive)

Which IC50 [5] does the source give for `CC1=CC(C)(C)Nc2ccc(OC(=O)CN3C(=O)c4cccc5cccc(c45)C3=O)cc21` here?
The IC50 was 6.95 µM (active).

And the IC50 [6]?
Its IC50 is 33 µM (active).

What about the IC50 [7] of the same compound?
Its IC50 is 64.2 µM (inactive).

With `CCC(CC)NCc1ccc2c(c1)c1ccccc1n2CC` as the compound, how does the CC50 [8] read?
Its CC50 is 100 µM (active).

What about the IC50 [9] of the same compound?
Its IC50 is 133 µM (active).

Which results are given for `N#CC(C#N)c1ccnc2ccccc12`?
IC50 (Interleukin-8 [10]): 40.4 µM (inactive); AC50 (HEK293): 11.5 µM (active); IC50 (Interleukin-8 [11]): > 79 µM (inactive)

Which AC50 [12] does the source give for `CCOc1ccc(NC(=S)N(CCCN2CCCC2)Cc2cccn2Cc2ccc(Cl)cc2)cc1` here?
The AC50 was 46.1 µM (active).
